Reference: ChEMBL document CHEMBL1126089, “2-Alkynyl derivatives of adenosine and adenosine-5'-N-ethyluronamide as selective agonists at A2 adenosine receptors” (J Med Chem, 1992)

Assays:
Adenosine receptor A1 [1] = biological target: T1, Adenosine receptor A1 (Rattus norvegicus, UniProt P25099); assay: Inhibition of adenylate cyclase via adenosine A1 receptors in rat fat cell membranes; type: functional, Membrane
T1 sequence (P25099 whole entry): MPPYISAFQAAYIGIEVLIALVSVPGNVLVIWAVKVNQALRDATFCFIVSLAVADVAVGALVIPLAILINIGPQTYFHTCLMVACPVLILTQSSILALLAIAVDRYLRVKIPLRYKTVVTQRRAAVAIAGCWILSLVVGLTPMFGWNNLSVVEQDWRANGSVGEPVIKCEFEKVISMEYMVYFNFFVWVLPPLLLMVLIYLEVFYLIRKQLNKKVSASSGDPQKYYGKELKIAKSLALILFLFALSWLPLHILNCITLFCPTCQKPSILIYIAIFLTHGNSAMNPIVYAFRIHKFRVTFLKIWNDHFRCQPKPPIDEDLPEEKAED

Adenosine A2 receptor [2] = biological target: T2, Adenosine A2 receptor (Homo sapiens, UniProt P29275+P29274); assay: Agonistic activity at adenosine A2 receptor; type: functional
Adenosine A2 receptor [3] = biological target: T2, Adenosine A2 receptor; assay: Maximal NECA stimulation of adenylate cyclase via adenosine A2 receptor in human platelet membranes; type: cell membranes
[4] = Selectivity as ratio of IC50 for A1 adenosine receptor compared to EC50 for A2 adenosine receptor
Adenosine receptor A1 [5] = biological target: T1, Adenosine receptor A1
Description: Binding affinity against adenosine A1 receptors from rat brain membranes using [3H]CCPA

Adenosine receptor A1 [6] = biological target: T1, Adenosine receptor A1; remark: listed apart in the source
Description: Binding affinity against high affinity component of adenosine A1 receptors from rat brain membranes using [3H]DPCPX

Adenosine receptor A1 [7] = biological target: T1, Adenosine receptor A1; remark: listed apart in the source
Description: Binding affinity against low affinity component of adenosine A1 receptors from rat brain membranes using [3H]-DPCPX

Adenosine A2 receptor [8] = biological target: T3, Adenosine A2 receptor (Rattus norvegicus, UniProt P29276+P30543)
Adenosine A2 receptor [9] = biological target: T2, Adenosine A2 receptor
Adenosine receptor A1 [10] = biological target: T1, Adenosine receptor A1; assay: Inhibition of adenylate cyclase via Adenosine A1 receptor in rat fat cell membranes; type: functional, Membrane
Adenosine receptor A1 [11] = biological target: T1, Adenosine receptor A1; assay: Binding affinity against high affinity component of Adenosine A1 receptor from rat brain membranes using [3H]-DPCPX; type: cell membranes, Membrane
Adenosine receptor A1 [12] = biological target: T1, Adenosine receptor A1; assay: Binding affinity against A1 adenosine receptors from rat brain membranes using [3H]CCPA
Adenosine receptor A1 [13] = biological target: T1, Adenosine receptor A1; assay: Inhibition of adenylate cyclase via A1 receptors in rat fat cell membranes; type: functional, Membrane
Adenosine A2 receptor [14] = biological target: T2, Adenosine A2 receptor; assay: Agonistic activity at Adenosine A2 receptor; type: functional
Adenosine A2 receptor [15] = biological target: T2, Adenosine A2 receptor; assay: Binding affinity against Adenosine A2 receptor from human platelet membranes using [3H]NECA
[16] = biological target: Adenosine A2 receptor (Rattus norvegicus) (UniProt P29276+P30543); assay: Binding affinity against Adenosine A2 receptor from rat striatal membranes with 50 nM CPA using [3H]NECA
Adenosine A2 receptor [17] = biological target: T2, Adenosine A2 receptor; assay: Maximal NECA stimulation of adenylate cyclase via Adenosine A2 receptor in human platelet membranes.; type: cell membranes
[18] = biological target: Adenosine A2a receptor (Rattus norvegicus) (UniProt P30543); assay: Binding affinity against Adenosine A2 receptor from rat striatal membranes with 50 nM CPA using [3H]-NECA
Adenosine receptor A1 [19] = biological target: T1, Adenosine receptor A1; assay: Binding affinity against low affinity component of Adenosine A1 receptor from rat brain membranes using [3H]DPCPX; type: cell membranes, Membrane
Adenosine receptor A1 [20] = biological target: T1, Adenosine receptor A1; assay: Binding affinity against Adenosine A1 receptor from rat brain membranes using [3H]CCPA
Adenosine A2 receptor [21] = biological target: T3, Adenosine A2 receptor; assay: Binding affinity against Adenosine A2 receptor from rat striatal membrane with 50 nM CPA using [3H]NECA
Adenosine A2 receptor [22] = biological target: T2, Adenosine A2 receptor; assay: Binding affinity against A2 adenosine receptors from human platelet membranes using [3H]NECA
Adenosine A2 receptor [23] = biological target: T2, Adenosine A2 receptor; assay: Maximal NECA stimulation of adenylate cyclase via Adenosine A2 receptor in human platelet membranes; type: cell membranes
Adenosine A2 receptor [24] = biological target: T2, Adenosine A2 receptor; assay: Maximal NECA stimulation of adenylate cyclase via A2 receptors in human platelet membranes; type: cell membranes
Adenosine A2 receptor [25] = biological target: T3, Adenosine A2 receptor; assay: Binding affinity against A2 adenosine receptors from rat striatal membranes with 50 nM CPA using [3H]NECA

Adenosine A2a receptor (Rattus norvegicus), sequence (P30543 whole entry, looked up): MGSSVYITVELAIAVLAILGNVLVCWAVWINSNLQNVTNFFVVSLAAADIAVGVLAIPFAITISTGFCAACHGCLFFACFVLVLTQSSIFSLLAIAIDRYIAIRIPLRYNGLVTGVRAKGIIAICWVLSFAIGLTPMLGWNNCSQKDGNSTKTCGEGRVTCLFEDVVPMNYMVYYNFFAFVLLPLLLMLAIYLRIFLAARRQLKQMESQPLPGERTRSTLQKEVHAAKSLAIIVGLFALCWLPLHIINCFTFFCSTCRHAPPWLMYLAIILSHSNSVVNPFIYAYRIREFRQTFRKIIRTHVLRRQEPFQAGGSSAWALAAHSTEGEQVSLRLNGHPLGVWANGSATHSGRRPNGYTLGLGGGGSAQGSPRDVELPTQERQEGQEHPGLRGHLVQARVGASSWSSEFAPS

IC50 (Adenosine receptor A1 [1]) [nM]	Emax (Adenosine A2 receptor [2]) [%]	EC50 (Adenosine A2 receptor [3]) [nM]	A2 selectivity [4]	Ki (Adenosine receptor A1 [5]) [nM]	Ki (Adenosine receptor A1 [6]) [nM]	Ki (Adenosine receptor A1 [7]) [nM]	Ki (Adenosine A2 receptor [8]) [nM]	Ki (Adenosine A2 receptor [9]) [nM]	Ki (Adenosine receptor A1 [11]) [nM]	Emax (Adenosine A2 receptor [14]) [%]	SMILES	other results
4380	100	105	42	43.9	136	3160	3.8	5.7			CCCCC#Cc1nc(N)c2ncn([C@@H]3O[C@H](C(=O)NCC)[C@@H](O)[C@H]3O)c2n1	
			23						67	100	CCCCCCC#Cc1nc(N)c2ncn(C3O[C@H](C(=O)NCC)[C@@H](O)[C@H]3O)c2n1 (some centres undefined)	Ki (Adenosine receptor A1 [19]): 2940 nM; Ki (Adenosine receptor A1 [20]): 64.4 nM; Ki (Adenosine A2 receptor [21]): 14.8 nM; Ki (Adenosine A2 receptor [22]): 159 nM; EC50 (Adenosine A2 receptor [23]): 13500 nM; EC50 (Adenosine A2 receptor [24]): 585 nM
			34						171	100	CCCCCC#Cc1nc(N)c2ncn(C3O[C@H](C(=O)NCC)[C@@H](O)[C@H]3O)c2n1 (some centres undefined)	IC50 (Adenosine receptor A1 [10]): 13100 nM; Ki (Adenosine receptor A1 [19]): 2910 nM; Ki (Adenosine receptor A1 [20]): 89 nM; Ki (Adenosine A2 receptor [25]): 4.7 nM; EC50 (Adenosine A2 receptor [23]): 37.1 nM; EC50 (Adenosine A2 receptor [24]): 388 nM

Continued, molecule first:

SMILES	IC50 (Adenosine receptor A1 [1]) [nM]	Emax (Adenosine A2 receptor [2]) [%]	EC50 (Adenosine A2 receptor [3]) [nM]	A2 selectivity [4]	Ki (Adenosine receptor A1 [5]) [nM]	Ki (Adenosine receptor A1 [6]) [nM]	Ki (Adenosine receptor A1 [7]) [nM]	Ki (Adenosine A2 receptor [8]) [nM]	Ki (Adenosine A2 receptor [9]) [nM]	Ki (Adenosine receptor A1 [11]) [nM]	Emax (Adenosine A2 receptor [14]) [%]	other results
CCCC#Cc1nc(N)c2ncn([C@@H]3O[C@H](CO)[C@@H](O)[C@H]3O)c2n1	3000	65	127	24	21.5	16	849	16.4	7.3			
CCCCCC#Cc1nc(N)c2ncn([C@@H]3O[C@H](CO)[C@@H](O)[C@H]3O)c2n1	3380	65	414	8	28.4	32.2	1220	2.8	20.8			
CCCC#Cc1nc(N)c2ncn([C@@H]3O[C@H](C(=O)NCC)[C@@H](O)[C@H]3O)c2n1				44						33	100	IC50 (Adenosine receptor A1 [10]): 1620 nM; Ki (Adenosine receptor A1 [12]): 40.8 nM; IC50 (Adenosine receptor A1 [13]): 2700 nM; Ki (Adenosine A2 receptor [15]): 12.6 nM; A2 selectivity [16]: 2; EC50 (Adenosine A2 receptor [17]): 19.5 nM; EC50 [18]: 62 nM
CCCCC#Cc1nc(N)c2ncn([C@@H]3O[C@H](CO)[C@@H](O)[C@H]3O)c2n1	2300	65			15.9	12.5	633					
CCCCCCC#Cc1nc(N)c2ncn([C@@H]3O[C@H](CO)[C@@H](O)[C@H]3O)c2n1	2910	65	681	4	25.2	19.6	823	6.3	39.9			
